Our source for the pKa values is the pKa sets of Baltruschat and Czodrowski (2020).

Broadly, the pKa is the negative logarithm of the acid dissociation constant. Low readings indicate a stronger acid or weaker base, high ones a weaker acid or stronger base.

Values joined by “and” are separate entries in the source; they are usually repeats but may differ in a detail not shown here. Equal entries are not always repeated.

Compound `Cc1cc(N)ccc1-c1ccc(N)cc1C` yielded a pKa (basic group) of 4.9.
Turning to `CC(C)[C@H]([NH3+])C(=O)O`, the pKa (acidic group) turned out to be 2.32.
`Cc1cnc2c(c1)c(C)cc1c(C)ccnc12` returned a pKa (basic group) of 5.9.
As to `COc1cc(OS(C)(=O)=O)ccc1-c1cn2cccnc2n1`, where the note is “basic group”, the pKa worked out at 3.95.
Still for that read-out and setting: to `C[C@]1([NH3+])C[C@@H]1N` belongs 5.83; to `COc1ccc2ccc(OC)c(N3CCOCC3)c2c1N1CCOCC1`, 13.
On to `Cc1cc([S-])[nH+]cn1`, for which the pKa (basic group) is 1.8.
On to `CCCCCP(=O)(O)CCCCC`, for which, where the note is “acidic group”, the pKa came to 3.23.
Consider `CC(C)/C=C/C(=O)O`, for which the pKa (acidic group) stood at 4.7.
The same measure, in the same setting: to `O=C([O-])CNC(=O)c1cccc(O)c1O` belongs 7.7.
Same read-out and setting: under `CCOCC(=O)O` stands 3.61; under `Cc1cc(C)c(/N=N/c2c(C)cc(O)cc2C)c(C)c1`, 9.1; under `O=C(O)C#CBr`, 1.9.
With `CC(CN)C(=O)[O-]` (configuration not stated), the pKa (basic group) turned out to be 9.91.
`N#CC(O)=C(C#N)C#N` displayed a pKa (acidic group) of 1.9.
Take `CC[C@@H]1C(=O)OC[C@H]1Cc1cncn1C`: the pKa (basic group) was found to be 7.17.
Take `C[Si](C)(C)c1ccc(C(=O)O)cc1`: the pKa (acidic group) is 4.27.
`COc1cc(Br)cc(C(=O)N[C@@H]2C[C@H]3CC[C@@H](C2)N3Cc2ccccc2)c1OC`: the pKa (basic group) turned out to be 8.84.
Consider `CCNCCNCC`, for which the pKa (basic group) was determined as 10.5.
On the same count and under the same terms, to `CCN1CCCCC1C` (configuration not stated) belongs 10.7.
In turn, `CCOC(=O)/C=C(/C)O` came in with a pKa (acidic group) of 9.51.
Turning to `O=[N+]([O-])c1cccc2nc3ccccc3c(NCCCO)c12`, the pKa (basic group) was determined as 7.55.
With `N#CCC(=O)NN`, the pKa (acidic group) was 11.1 and the pKa (basic group) amounted to 2.34.
For the setting “basic group”, `C[NH+](C)CCNCC[NH3+]` yielded a pKa of 4.36.
Same read-out and setting: to `CCS[C@@H]1C(O)C2CC(=O)CC1N2C` (some centres not stated) belongs 4.9 and 5.4.
Compound `Oc1cccc2cn[nH]c12` displayed a pKa (acidic group) of 8.6.
For the compound `C[NH+]1CCC(n2nc(-c3ccccc3)c(Cc3ccccc3)c2O)CC1`, the pKa (acidic group) turned out to be 6.73.
`C[N+](C)(O)c1ccccc1` yielded a pKa (acidic group) of 4.21.
Turning to `COc1ccc(CN)cc1N`, the pKa (basic group) came to 9.77.
Take `Cc1ccc(NC(=S)c2ccc(Cl)cc2)cc1`: the pKa (acidic group) amounted to 11.2.
In turn, `CCCCCCCCCCCCNCCCCCCCCCCCC` registered a pKa (basic group) of 11.
On the same count and under the same terms, to `Cn1cnc2cc(N)ccc21` belongs 6.29.
Turning to `CCCC[NH2+]CCC(=O)O`, the pKa (acidic group) worked out at 3.57.
The compound `NC[C@@H](O)[C@H]1NC(N)=[NH+][C@@H]1C(=O)[O-]` registered a pKa (basic group) of 9.3.
Compound `C=Cc1ccc(C)nc1` displayed a pKa (basic group) of 5.67.
The compound `CCCN(C)N` had a pKa (basic group) of 7.35.
As to `Fc1cccc(NC(=S)c2ccccc2)c1`, where the note is “acidic group”, the pKa turned out to be 10.3.
`COc1ccnc2c1ccc1c(OC)ccnc12` gave a pKa (basic group) of 6.45.
In the case of `C=CCSS/C(CCO)=C(/C)N(C=O)Cc1cnc(C)nc1N`, the pKa (basic group) was 5.65.
For the setting “basic group”, `NCC(=O)O` had a pKa of 9.67.
For the setting “basic group”, `COC(=O)c1cccc(N)c1` registered a pKa of 3.55.
Still for that read-out and setting: to `CC1NCCC[NH2+]1` belongs 7.19.
As to `CCCCOc1ccc(OCCCN2CCOCC2)cc1`, where the note is “basic group”, the pKa came out at 6.24.
As to `O=S(=O)(Nc1ccccc1)C(F)(F)F`, the pKa (acidic group) was found to be 4.85.
Compound `Cn1ccnc1-c1ccccn1` had a pKa (basic group) of 5.7.
Regarding `CC(N)c1nnn[n-]1` (configuration not stated), the pKa (acidic group) was 8.77.
With `COc1ccc(C(=O)S)cc1`, the pKa (acidic group) is 2.79 and the pKa (basic group) is -4.9.
`CCOC(=O)C1(CCC(=O)O)CCC(=O)NC1=O` (configuration not stated) showed a pKa (acidic group) of 4.35.
The compound `O=[N+]([O-])c1ccc2cn[nH]c2c1` returned a pKa (basic group) of 0.66.
As for `O=C(O)C(CO)[NH2+]Cc1ccccc1O` (configuration not stated), the pKa (acidic group) amounted to 2.1.
With `CCN(CC)N(CC)CC`, the pKa (basic group) was found to be 7.31.
Under “acidic group”, `C#CC#CC=C=CC(O)CCC(=O)O` (configuration not stated) showed a pKa of 4.8.
For the setting “basic group”, `NNC(=O)[C@H](Cc1c[nH]cn1)NC(=O)OCc1ccccc1` displayed a pKa of 6.1.
Where the note is “basic group”, `CCN1CCC[C@@H]1CNC(=O)c1c(OC)ccc(Cl)c1[O-]` displayed a pKa of 9.54.
With `CCCCCCCCCNCc1ccc(C)cc1`, where the note is “basic group”, the pKa is 9.48.
Consider `CCCOC(=S)NC(C)=O`, for which, under “acidic group”, the pKa was determined as 9.34.
Take `COc1ccccc1/N=C/N(C)C`: the pKa (basic group) stood at 8.11.
In the case of `O=C(O)c1cccc(C2CC2)c1`, the pKa (acidic group) is 4.28.
For `CCCCC1CCCN1C` (configuration not stated), for the setting “basic group”, the pKa came out at 10.
`CCOP(=O)(CN1CCOCC1)OCC`: the pKa (basic group) was determined as 4.
In the case of `CCCc1c(C)[n-]n(C2CCN(C)CC2)c1=O`, where the note is “basic group”, the pKa came out at 9.2.
In the case of `O=C([O-])c1ccccc1S`, the pKa (acidic group) came to 7.6.
Take `CCN(C)N(C)CC`: for the setting “basic group”, the pKa was determined as 6.8.
Under “acidic group”, `CC(C#N)C(C)(C)C(=O)O` (configuration not stated) had a pKa of 3.97.
In turn, `CC(C)(C)c1ccccc1N` returned a pKa (basic group) of 3.78.
Compound `CC(C)[C@H]1CN[C@H](C(=O)[O-])[C@H]1CC(=O)[O-]` yielded a pKa (basic group) of 10.6.
Consider `Oc1cccc2cccnc12`, for which the pKa by setting is: (acidic group) 9.77; (basic group) 5.02.
As for `O=c1ccc2ccccc2cc1O`, where the note is “acidic group”, the pKa was 10.
In the case of `CC(C)C([NH2+]c1ccccc1)C(=O)O` (configuration not stated), the pKa (acidic group) stood at 4.4.
Regarding `O=C1COC=C([O-])C1=O`, the pKa (acidic group) was determined as 10.5.
Turning to `[NH3+]Nc1nncc2ccccc12`, the pKa (basic group) was 2.9.
`O=c1oc2cc(O)ccc2cc1-c1nc2ccccc2s1`: the pKa (acidic group) was determined as 7.02.
Compound `[O-]c1cnnc2ccccc12` returned a pKa (basic group) of 9.27.
For `C#CCCC(=O)O`, the pKa (acidic group) turned out to be 4.2.
In the case of `CNCC(C)CNC`, the pKa (basic group) turned out to be 10.6.
Under “basic group”, `O=C([O-])c1cccnc1` yielded a pKa of 4.83.
Turning to `CC1(C)CC(=O)C(C=O)C(=O)C1`, the pKa (acidic group) was 3.65.
`Cc1c(C)c(O)c(C)c(C)c1O`: the pKa (acidic group) came to 11.3.
Compound `CNc1ccncn1` yielded a pKa (basic group) of 6.12.
Still for that read-out and setting: under `c1cc(-c2ccncc2)ccn1` stands 4.82; under `Cc1c2ccccc2c(CN2CCOCC2)c2ccccc12`, 6.6.
For `Nn1cnnc1S`, the pKa (acidic group) was found to be 7.47.
On the same count and under the same terms, under `O=Cc1ccccc1O` stands 8.36.
As for `Cc1cccc2ncccc12`, the pKa (basic group) was 5.
The compound `Nc1cccc2cncnc12` returned a pKa (basic group) of 2.81.
`CCC(C)(C)NC(C)(C)CC` gave a pKa (basic group) of 11.6.
Consider `CN(C)c1ccc(C(=O)O)cc1`, for which the pKa runs as follows: (acidic group) 4.96; (basic group) 2.57.
Regarding `CC[NH+](CC)[C@H]1CCC[C@@H]1N(C)C`, the pKa (basic group) was found to be 5.76.
On the same count and under the same terms, to `C1CNCCSCC[NH2+]C1` belongs 3.23; to `Nc1ccc2[nH]c(Cc3ccccc3)[nH+]c2c1`, 3.3.
Compound `COc1cc2c(O)cc(C)[nH+]c2c2c(C)c(C)oc12` yielded a pKa (acidic group) of 2.91.
Same read-out and setting: to `CCCCCCCC[NH2+]CCC(=O)O` belongs 3.56; to `C[N+](C)(C)NC(=O)c1ccc([N+](=O)[O-])cc1`, 3.11.
For the compound `c1c[nH]c(P(c2ncc[nH]2)c2ncc[nH]2)n1`, the pKa (basic group) turned out to be 7.44.
Compound `NCc1ccccc1O` gave a pKa (basic group) of 8.89.
Compound `CC/N=c1\sc(-c2ccccc2)nn1CC` had a pKa (basic group) of 6.7.
`COc1cc(S(C)=O)ccc1-c1nc2nccnc2[nH]1` (configuration not stated): the pKa (acidic group) is 8.94.
The compound `Cc1ccc(S(=O)(=O)NCC[NH+](CC(=O)O)CC(=O)O)cc1` registered a pKa (acidic group) of 2.15.
Compound `CC(=O)NC(CS)C(=O)O` (configuration not stated) returned a pKa (acidic group) of 3.08.
Still for that read-out and setting: to `O=C(O)[C@@H]1CC[C@@H](C(=O)O)[Se][Se]1` belongs 2.85; to `O=C1COC(=O)C1Cl` (configuration not stated), 2.13.
For the setting “basic group”, `CCCN1CC(O[Si](C)(C)C)C1` gave a pKa of 8.89.
Compound `CC(C)(C)CCCC(=O)O` gave a pKa (acidic group) of 4.88.
The compound `Cc1cnc2ccccc2n1` yielded a pKa (basic group) of 0.95.
In the case of `O=C1C=CC(=O)/C(=N/O)N1`, the pKa (acidic group) was determined as 8.4.
As for `Cc1n[nH]c2c(N)cccc12`, the pKa (basic group) worked out at 3.18.
For the compound `CNCC(C)C[NH2+]C`, the pKa (basic group) was found to be 8.29.
Compound `O=C(NNc1ccc(Br)cc1)c1ccncc1` returned a pKa (basic group) of 4.03.
As for `O=C(O)CCCCc1ccccc1`, the pKa (acidic group) worked out at 4.88.
Same read-out and setting: to `O=C(O)C12CC3CC(CC(C3)C1)C2` belongs 4.95.
With `OCc1cc(-c2ccccc2)nnc1NCC[NH+]1CCOCC1`, under “basic group”, the pKa worked out at 3.81.
Still for that read-out and setting: under `Cc1nnc2c(c1C)CCCC2` stands 5.41.
Consider `O=[N+]([O-])Nc1ccccc1`, for which, under “acidic group”, the pKa was determined as 4.74.
In turn, `[NH3+]CCCCCc1ccncc1` registered a pKa (basic group) of 5.99.
The compound `N[C@H]1CCCC[C@@H]1O` showed a pKa (basic group) of 9.35.
On the same count and under the same terms, under `COc1cnccc1N` stands 9.03; under `CCNc1ccccc1`, 5.29.
The compound `Cc1cccc(-c2nnn[nH]2)c1` displayed a pKa (acidic group) of 4.15.
Regarding `Cc1cc(O)c(C(C)C)cc1Nc1ccc([O-])cc1`, under “acidic group”, the pKa was determined as 10.8.
Where the note is “basic group”, `[O-]c1[nH+]cncc1O` displayed a pKa of 1.99.
Where the note is “basic group”, `CC(=O)CCN(C)C` came in with a pKa of 8.95.
Regarding `c1ccc(CSc2cnn[nH]2)cc1`, the pKa (acidic group) came out at 8.2.
The compound `Nc1ccc(-c2ccc(/[NH+]=C/c3ccccc3O)cc2)cc1` displayed a pKa (basic group) of 4.75.
Where the note is “basic group”, `NCc1ccc(N)cc1` registered a pKa of 10.
For the setting “basic group”, `Clc1ccc(C2CN2)cc1` (configuration not stated) returned a pKa of 6.18.
In the case of `C[NH+](C)CCCCCCCCNC(=O)/C=N/O`, the pKa (acidic group) came to 8.97.
`Cc1cccc(N)n1`: where the note is “basic group”, the pKa stood at 7.4.
For the setting “basic group”, `CCCCCNCCCCC` returned a pKa of 11.2.
On to `C=C(C)C(=O)NCCN(CC)CC`, for which the pKa (basic group) was 9.37.
Consider `N#CC(C#N)=C(C#N)NC1CCCCC1`, for which, under “acidic group”, the pKa was 6.01.
Turning to `Cc1cc(C)n(Cc2cc(C)n(C)n2)n1`, where the note is “basic group”, the pKa was found to be 3.39.
`C=CC(C)(C)NC(C)(C)CC` came in with a pKa (basic group) of 10.8.
`Cc1nc(N)c2cnn(-c3ccccc3)c2n1`: for the setting “basic group”, the pKa amounted to 4.52.
Where the note is “acidic group”, `NS(=O)(=O)C(F)(F)I` registered a pKa of 6.79.
In turn, `C[n+]1c(NN)ccc2ccccc21` showed a pKa (basic group) of 2.66.
The same measure, in the same setting: under `CCCCN(CCCC)c1nnc(-c2ccccc2)cc1C` stands 4.88.
For the compound `CCn1nnnc1CC(=O)O`, the pKa (acidic group) was 2.85.
The same measure, in the same setting: to `O=C(O)CCS` belongs 4.38; to `CCNC(=O)/C=C(/[70SH])c1ccccc1`, 4.73.
Where the note is “basic group”, `CC(C)(C)c1ccnc(C(C)(C)C)c1` gave a pKa of 6.7.
In the case of `Oc1ccc2cnc3ccccc3c2c1`, the pKa was found to be 8.43 (acidic group) and 5.35 (basic group).
Turning to `Brc1nnn[nH]1`, where the note is “acidic group”, the pKa came to 2.13.
